Experimental data: publication PMC5007854, “β-Nitrostyrenes as Potential Anti-leishmanial Agents” (Frontiers in Microbiology, 2016)
Converted amounts (≈) assume the structure as drawn. Read-outs that look alike come from different tables or passages of the source.

Legend:
Format in all cases: cell-based
[1] = system: Candida glabrata ATCC 90030; assay: Broth microdilution antifungal susceptibility (MIC/MFC); conditions: Nakaseomyces glabratus; for MIC: broth microdilution, 35°C, 48 h, read-out: MIC, Cg ATCC 90030; for MFC: ≥99.9% reduction of original inoculum, read-out: MFC, Cg ATCC 90030
From the text: (§1) One reference each of the following species was used for their in vitro susceptibility to β-nitrostyrene in this study: Staphylococcus aureus ATCC 29213, Staphylococcus epidermidis ATCC 14990, Escherichia coli ATCC 25922, Pseudomonas aeruginosa ATCC 27853, Candida albicans ATCC 90028, Candida glabrata ATCC 90030, Aspergillus fumigatus ATCC 16424 and Aspergillus niger ATCC 16404. These strains were procured from the American Type Culture Collection (ATCC, Manassas, VA, USA).
(§2) The antibacterial and antifungal activities of the β-nitrostyrenes were performed by broth microdilution methods as per the guidelines of Clinical and Laboratory Standard Institute (Wayne, [1998], [2008a],[b],[c]) by using Mueller-Hinton broth (MHB; Becton-Dickinson, Cockeysville, MD, USA) supplemented with calcium (25 mg/L) and magnesium (12.5 mg/L) for bacterial strains while as RPMI 1640 medium with L-glutamine and without sodium bicarbonate, buffered to pH 7.0 with 0.165 M 3-(N-morpholino) propanesulfonic acid (MOPS; both from Sigma) was used for fungal strains. Stock solutions were prepared in 100% dimethyl sulfoxide (DMSO; Sigma; distilled water was used for ciprofloxacin), with a final DMSO concentration of 1% (vol. per vol.) and two-fold serial dilutions were prepared in media in amounts of 100 μL per well in 96-well U-bottom microtiter plates (Tarsons, Kolkata, India) to yield twice the final concentration required for testing, which ranged from 64 to 0.12 μg/mL for β-nitrostyrenes and 16 to 0.03 μg/mL for ciprofloxacin as well as amphotericin B. Stock inoculum suspensions of the bacteria, Candida species and Aspergillus species were prepared in sterile normal saline (0.85%) containing 0.05% polysorbate 20 (NST) from overnight (3 to 5-day old for Aspergillus species) strains grown on Trypticase soy agar (TSA; Becton-Dickinson) and potato dextrose agar (Difco Laboratories, Detroit, MI, USA) respectively at 35°C. Inocula were verified for each assay by plating onto agar plates for colony enumeration. These suspensions were further diluted in the respective test medium and a 100 μl volume of this diluted inoculum was added to each well of the plate, resulting in a final inoculum concentration of approximately 5 × 10^5 CFU/mL for bacter1ia, (Wayne, [2008a]) approximately 2.5 × 10^4 CFU/ml for Candida species (Pfaller et al., [2004]) while as 0.4 × 10^4 to 5 × 10^4 CFU/mL for Aspergillus species (Wayne, [2008c]). Untreated growth control, vehicle control (DMSO) and sterility control wells were included for each isolate tested. Ciprofloxacin and amphotericin B served as the standard drug controls for bacterial and fungal strains, respectively. The microtiter plates were incubated at 35°C for 24 h for bacterial strains and 48 h for fungal strains. The plates were read visually and the minimum inhibitory concentration (MIC) was defined as the lowest concentration of test sample that prevented visible growth with respect to the growth control.
(§3) The minimum bactericidal concentration (MBC) and minimum fungicidal concentration (MFC) were determined by plating 100 μl volumes on agar plates from the wells showing no visible growth (clear MIC well). The plates were incubated as described above in MIC measurements. […] All experiments were conducted twice in duplicates on separate occasions with freshly prepared inoculums and stock solutions.

[2] = system: Aspergillus fumigatus ATCC 16424; assay: as above; conditions: Aspergillus fumigatus; for MIC: broth microdilution, 35°C, 48 h, read-out: MIC, Af ATCC 16424; for MFC: ≥99.9% reduction of original inoculum, read-out: MFC, Af ATCC 16424
From the text: as §1, §2, §3

[3] = system: Aspergillus niger ATCC 16404; assay: as above; conditions: Aspergillus niger; for MIC: broth microdilution, 35°C, 48 h, read-out: MIC, An ATCC 16404; for MFC: ≥99.9% reduction of original inoculum, read-out: MFC, An ATCC 16404
From the text: as §1, §2, §3

[4] = system: Candida albicans ATCC 90028; assay: as above; conditions: Candida albicans; for MIC: broth microdilution, 35°C, 48 h, read-out: MIC, Ca ATCC 90028; for MFC: ≥99.9% reduction of original inoculum, read-out: MFC, Ca ATCC 90028
From the text: as §1, §2, §3

[5] = system: Escherichia coli ATCC 25922; assay: Broth microdilution antibacterial susceptibility (MIC/MBC); conditions: Escherichia coli; for MIC: broth microdilution, 35°C, 24 h, read-out: MIC, Ec ATCC 25922; for MBC: ≥99.9% reduction of original inoculum, read-out: MBC, Ec ATCC 25922
From the text: as §1, §2, §3

[6] = system: Staphylococcus aureus ATCC 29213; assay: as above; conditions: Staphylococcus aureus; for MIC: broth microdilution, 35°C, 24 h, read-out: MIC, Sa ATCC 29213; for MBC: ≥99.9% reduction of original inoculum, read-out: MBC, Sa ATCC 29213
From the text: as §1, §2, §3

[7] = system: Staphylococcus epidermidis ATCC 14990; assay: as above; conditions: Staphylococcus epidermidis; for MIC: broth microdilution, 35°C, 24 h, read-out: MIC, Se ATCC 14990; for MBC: ≥99.9% reduction of original inoculum, read-out: MBC, Se ATCC 14990
From the text: as §1, §2, §3

[8] = system: Pseudomonas aeruginosa ATCC 27853; assay: as above; conditions: Pseudomonas aeruginosa; for MIC: broth microdilution, 35°C, 24 h, read-out: MIC, Pa ATCC 27853; for MBC: ≥99.9% reduction of original inoculum, read-out: MBC, Pa ATCC 27853
From the text: as §1, §2, §3

SMILES: C/C(=C\c1ccc(N(C)C)cc1)[N+](=O)[O-] [Compound 5, N,N-dimethyl-4-((E)-2-nitroprop-1-enyl) benzenamine]
- MIC ([1]; ATCC90030, 48 h): 32 µg/mL (≈ 155 µM)
- MFC ([1]; ATCC90030): 32 µg/mL (≈ 155 µM)
- MIC ([2]; ATCC16424, 48 h): > 64 µg/mL
- MFC ([2]; ATCC16424): > 64 µg/mL
- MIC ([3]; ATCC16404, 48 h): 64 µg/mL (≈ 310 µM)
- MFC ([3]; ATCC16404): > 64 µg/mL
- MIC ([4]; ATCC90028, 48 h): > 64 µg/mL
- MFC ([4]; ATCC90028): > 64 µg/mL
- MIC ([5]; ATCC25922, 24 h): > 64 µg/mL
- MBC ([5]; ATCC25922): > 64 µg/mL
- MIC ([6]; ATCC29213, 24 h): > 64 µg/mL
- MBC ([6]; ATCC29213): > 64 µg/mL
- MIC ([7]; ATCC14990, 24 h): > 64 µg/mL
- MBC ([7]; ATCC14990): > 64 µg/mL
- MIC ([8]; ATCC27853, 24 h): > 64 µg/mL
- MBC ([8]; ATCC27853): > 64 µg/mL

SMILES: CC/C(=C\c1ccc(N(C)C)cc1)[N+](=O)[O-] [Compound 6, N,N-dimethyl-4-((E)-2-nitrobut-1-enyl) benzenamine]
- MIC ([1]; ATCC90030, 48 h): 32 µg/mL (≈ 145 µM)
- MFC ([1]; ATCC90030): 32 µg/mL (≈ 145 µM)
- MIC ([2]; ATCC16424, 48 h): > 64 µg/mL
- MFC ([2]; ATCC16424): > 64 µg/mL
- MIC ([3]; ATCC16404, 48 h): 64 µg/mL (≈ 291 µM)
- MFC ([3]; ATCC16404): > 64 µg/mL
- MIC ([4]; ATCC90028, 48 h): > 64 µg/mL
- MFC ([4]; ATCC90028): > 64 µg/mL
- MIC ([5]; ATCC25922, 24 h): > 64 µg/mL
- MBC ([5]; ATCC25922): > 64 µg/mL
- MIC ([6]; ATCC29213, 24 h): > 64 µg/mL
- MBC ([6]; ATCC29213): > 64 µg/mL
- MIC ([7]; ATCC14990, 24 h): > 64 µg/mL
- MBC ([7]; ATCC14990): > 64 µg/mL
- MIC ([8]; ATCC27853, 24 h): > 64 µg/mL
- MBC ([8]; ATCC27853): > 64 µg/mL

SMILES: COc1ccc(/C=C/[N+](=O)[O-])cc1 [Compound 13, 1-methoxy-4-((E)-2-nitrovinyl) benzene]
- MIC ([1]; ATCC90030, 48 h): 32 µg/mL (≈ 179 µM)
- MFC ([1]; ATCC90030): 32 µg/mL (≈ 179 µM)
- MIC ([2]; ATCC16424, 48 h): 64 µg/mL (≈ 357 µM)
- MFC ([2]; ATCC16424): > 64 µg/mL
- MIC ([3]; ATCC16404, 48 h): 64 µg/mL (≈ 357 µM)
- MFC ([3]; ATCC16404): 64 µg/mL (≈ 357 µM)
- MIC ([4]; ATCC90028, 48 h): 64 µg/mL (≈ 357 µM)
- MFC ([4]; ATCC90028): 64 µg/mL (≈ 357 µM)
- MIC ([5]; ATCC25922, 24 h): > 64 µg/mL
- MBC ([5]; ATCC25922): > 64 µg/mL
- MIC ([6]; ATCC29213, 24 h): 64 µg/mL (≈ 357 µM)
- MBC ([6]; ATCC29213): 64 µg/mL (≈ 357 µM)
- MIC ([7]; ATCC14990, 24 h): 32 µg/mL (≈ 179 µM)
- MBC ([7]; ATCC14990): 32 µg/mL (≈ 179 µM)
- MIC ([8]; ATCC27853, 24 h): > 64 µg/mL
- MBC ([8]; ATCC27853): > 64 µg/mL

SMILES: O=[N+]([O-])/C=C/c1ccc(O)cc1 [Compound 16, 4-((E)-2-nitrovinyl) phenol]
- MIC ([1]; ATCC90030, 48 h): 16 µg/mL (≈ 96.9 µM)
- MFC ([1]; ATCC90030): 16 µg/mL (≈ 96.9 µM)
- MIC ([2]; ATCC16424, 48 h): 16 µg/mL (≈ 96.9 µM)
- MFC ([2]; ATCC16424): 16 µg/mL (≈ 96.9 µM)
- MIC ([3]; ATCC16404, 48 h): 8 µg/mL (≈ 48.4 µM)
- MFC ([3]; ATCC16404): 16 µg/mL (≈ 96.9 µM)
- MIC ([4]; ATCC90028, 48 h): 32 µg/mL (≈ 194 µM)
- MFC ([4]; ATCC90028): 32 µg/mL (≈ 194 µM)
- MIC ([5]; ATCC25922, 24 h): 64 µg/mL (≈ 388 µM)
- MBC ([5]; ATCC25922): > 64 µg/mL
- MIC ([6]; ATCC29213, 24 h): 64 µg/mL (≈ 388 µM)
- MBC ([6]; ATCC29213): > 64 µg/mL
- MIC ([7]; ATCC14990, 24 h): 64 µg/mL (≈ 388 µM)
- MBC ([7]; ATCC14990): 64 µg/mL (≈ 388 µM)
- MIC ([8]; ATCC27853, 24 h): > 64 µg/mL
- MBC ([8]; ATCC27853): > 64 µg/mL

SMILES: O=[N+]([O-])/C=C/c1cccc(O)c1 [Compound 19, 3-((E)-2-nitrovinyl) phenol]
- MIC ([1]; ATCC90030): 16 µg/mL (≈ 96.9 µM)
- MFC ([1]; ATCC90030): 16 µg/mL (≈ 96.9 µM)
- MIC ([2]; ATCC16424): 64 µg/mL (≈ 388 µM)
- MFC ([2]; ATCC16424): > 64 µg/mL
- MIC ([3]; ATCC16404): 64 µg/mL (≈ 388 µM)
- MFC ([3]; ATCC16404): 64 µg/mL (≈ 388 µM)
- MIC ([4]; ATCC90028): 64 µg/mL (≈ 388 µM)
- MFC ([4]; ATCC90028): > 64 µg/mL
- MIC ([5]; ATCC25922): > 64 µg/mL
- MBC ([5]; ATCC25922): > 64 µg/mL
- MIC ([6]; ATCC29213): > 64 µg/mL
- MBC ([6]; ATCC29213): > 64 µg/mL
- MIC ([7]; ATCC14990): 64 µg/mL (≈ 388 µM)
- MBC ([7]; ATCC14990): > 64 µg/mL
- MIC ([8]; ATCC27853): > 64 µg/mL
- MBC ([8]; ATCC27853): > 64 µg/mL

SMILES: O=[N+]([O-])/C=C/c1c[nH]c2ccccc12 [Compound 28, 3-((E)-2-nitrovinyl)-1H-indole]
- MIC ([1]; ATCC90030, 48 h): 16 µg/mL (≈ 85 µM)
- MFC ([1]; ATCC90030): 16 µg/mL (≈ 85 µM)
- MIC ([2]; ATCC16424, 48 h): 16 µg/mL (≈ 85 µM)
- MFC ([2]; ATCC16424): 16 µg/mL (≈ 85 µM)
- MIC ([3]; ATCC16404, 48 h): 8 µg/mL (≈ 42.5 µM)
- MFC ([3]; ATCC16404): 16 µg/mL (≈ 85 µM)
- MIC ([4]; ATCC90028, 48 h): 32 µg/mL (≈ 170 µM)
- MFC ([4]; ATCC90028): 32 µg/mL (≈ 170 µM)
- MIC ([5]; ATCC25922, 24 h): 64 µg/mL (≈ 340 µM)
- MBC ([5]; ATCC25922): > 64 µg/mL
- MIC ([6]; ATCC29213, 24 h): 64 µg/mL (≈ 340 µM)
- MBC ([6]; ATCC29213): > 64 µg/mL
- MIC ([7]; ATCC14990, 24 h): 64 µg/mL (≈ 340 µM)
- MBC ([7]; ATCC14990): 64 µg/mL (≈ 340 µM)
- MIC ([8]; ATCC27853, 24 h): > 64 µg/mL
- MBC ([8]; ATCC27853): > 64 µg/mL
